A short description of assay [1]: Percentage inhibition (100 uM) against protein tyrosine […].
For assay [2], the target named is T1, Neutral alpha-glucosidase AB (Homo sapiens) (UniProt Q14697).
T1 sequence (whole entry): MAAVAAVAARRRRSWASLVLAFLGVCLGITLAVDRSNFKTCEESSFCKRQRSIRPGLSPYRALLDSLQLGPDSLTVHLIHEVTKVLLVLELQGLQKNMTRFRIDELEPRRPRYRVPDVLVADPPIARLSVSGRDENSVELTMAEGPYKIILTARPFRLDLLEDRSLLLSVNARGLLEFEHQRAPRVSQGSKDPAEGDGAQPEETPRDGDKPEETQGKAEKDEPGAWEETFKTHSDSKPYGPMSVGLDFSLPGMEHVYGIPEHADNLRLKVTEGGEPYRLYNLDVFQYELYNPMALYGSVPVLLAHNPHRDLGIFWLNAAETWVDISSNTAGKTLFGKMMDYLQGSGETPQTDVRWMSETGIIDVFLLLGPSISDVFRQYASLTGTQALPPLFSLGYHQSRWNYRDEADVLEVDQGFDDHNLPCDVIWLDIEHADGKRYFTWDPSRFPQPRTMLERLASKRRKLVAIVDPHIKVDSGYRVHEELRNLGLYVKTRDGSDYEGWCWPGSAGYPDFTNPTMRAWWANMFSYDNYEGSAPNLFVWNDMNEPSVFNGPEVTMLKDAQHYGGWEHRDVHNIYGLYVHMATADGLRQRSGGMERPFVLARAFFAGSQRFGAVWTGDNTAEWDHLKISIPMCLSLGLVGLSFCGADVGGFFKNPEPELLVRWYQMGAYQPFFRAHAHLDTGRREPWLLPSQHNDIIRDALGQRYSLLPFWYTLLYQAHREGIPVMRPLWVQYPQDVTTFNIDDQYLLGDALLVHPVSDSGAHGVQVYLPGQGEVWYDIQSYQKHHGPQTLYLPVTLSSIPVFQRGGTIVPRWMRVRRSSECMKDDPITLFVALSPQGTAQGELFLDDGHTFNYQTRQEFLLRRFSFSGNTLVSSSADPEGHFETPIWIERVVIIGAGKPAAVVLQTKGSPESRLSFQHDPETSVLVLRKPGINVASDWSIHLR
Description: Percentage inhibition (100 uM) against Alpha glucosidase.

Turning to `N#Cc1c(N2CCc3ccccc3C2)cc(-c2ccc(Cl)cc2)c2c1CCCCCC2`, the inhibition in assay [1] stood at 24.2%; in assay [2] it was 28.8%.
For `N#Cc1c(-c2ccc(C(F)(F)F)cc2)cc(-c2ccc3ccc4cccc5ccc2c3c45)cc1N1CCCC1`, the inhibition in assay [1] worked out at 12.5%; in assay [2] it was 93.8%.
As to `N#Cc1c(N2CCc3ccccc3C2)cc(-c2ccc(Cl)cc2)oc1=O`, the inhibition is 18.2% in assay [1] and 51.9% in assay [2].
`N#Cc1c(N2CCc3ccccc3C2)cc(-c2ccc(Cl)cc2)c2c1CCCC2`: the values for the inhibition in assay [1] and in assay [2] were 23.2% and 20.7%, respectively.
With `N#Cc1c(N2CCc3ccccc3C2)cc(-c2cccc3ccccc23)c2c1-c1ccccc1CC2`, the inhibition in assay [1] is 51.8%; in assay [2], 94.8%.
As for `N#Cc1c(N2CCc3ccccc3C2)cc(-c2cccc3ccccc23)c2c1-c1ccccc1SC2`, the inhibition in assay [1] was 41.9%; in assay [2], 98.7%.
Consider SODIUM ORTHOVANAD, for which the inhibition in assay [1] worked out at 77.6%.
Turning to `N#Cc1c(N2CCc3ccccc3C2)cc(-c2cccc3ccccc23)c2c1CCSC2`, the inhibition in assay [1] was found to be 26.7%; in assay [2] it was 96.1%.
Take `C[C@H]1O[C@H](O[C@H]2[C@H](O)[C@@H](O)[C@@H](O[C@H]3[C@H](O)[C@@H](O)C(O)O[C@@H]3CO)O[C@@H]2CO)[C@H](O)[C@@H](O)[C@@H]1N[C@H]1C=C(CO)[C@@H](O)[C@H](O)[C@H]1O` (some centres not stated): in assay [2], the inhibition came out at 90%.
`N#Cc1c(N2CCc3ccccc3C2)cc(-c2ccc(Cl)cc2)c2c1CCCCC2`: the inhibition was determined as 42.8% in assay [1] and 47.4% in assay [2].
In the same order, the values of `N#Cc1c(N2CCc3ccccc3C2)cc(-c2ccc(Br)cc2)oc1=O` are 25.1% and 59.7%.
Taken in the same sequence, the figures for `N#Cc1c(N2CCc3ccccc3C2)cc(-c2cccc3ccccc23)c2c1CCCC2` were 14.8% and 72.2%.
